Laboratory results from patent publication US12653800B2, “Small molecule inhibitors of TLR2 signaling” (University of Maryland, Baltimore, priority 2015, dated 2026).

Experiments:
TLR2/1 = TLR2/1 (Mus musculus, UniProt Q9QUN7); assay: P3C-induced inflammation in vivo in C57BL/6J mice; parameters: tissue The Jackson Laboratory; host or cells: whole animal; liver RNA and serum analysed; settings: C29L i.p. 1.314 mM/g twice, P3C 100 μg i.p.
Method: FIG. 4. C29L inhibits TLR2/1-induced inflammation in vivo. C57BL/6J mice were pretreated i.p. with vehicle (water) or C29L (1.314 mM/g) for 1 hr. Mice received a second pretreatment i.p. with vehicle (water) or C29L (1.314 mM/g) and subsequently were challenged i.p. with PBS or P3C (100 μg) and sacrificed 1 hr or 3 hrs later. Liver RNA (A) was analyzed by qRT-PCR and serum concentrations (B) were analyzed by Multiplex (*, p≤0.05; ***, p≤0.001; ****, p≤0.0001). Panels A and B, n=6 (the combined data from two separate experiments) for each treatment group.
All animal studies were carried out with institutional approval. Female C57BL/6J mice (6-8 weeks old) were purchased from The Jackson Laboratory (Bar Harbor, ME) and (n=3 mice/group) received PBS, H2O, or C29L (in H2O) i.p. (1.314 mM/g). After 1 h, mice received a second injection of PBS, H2O, or C29L i.p. (1.314 mM/g) and were subsequently challenged i.p. with PBS or P3C (100 μg) for 1 or 3 h. Mice were bled and sera was prepared. Livers were also extracted for qRT-PCR analysis.

Solubility in water = assay type: physicochemical; settings: compared with C29
[1] = Thin layer chromatography of C29 in NaOH or organic solvent (imine cleavage); assay type: physicochemical
Method: FIG. 11. C29 L reproduces the TLR2 inhibitory activity observed with C29. (A) C29 dissolved in NaOH generates ortho-vanillin (“C29L”) and 3-amino-2-methylbenzoic acid (“C29R”). (B) TLC plate coated with silica was spotted with C29 dissolved in 65 μM NaOH, C29 dissolved in ethyl acetate (organic solvent), and a mixture of both. The plate was placed in solvent and visualized using a KMnO4 stain. (C, D) Total RNA was extracted from murine peritoneal macrophages that had been pretreated for 1 hr with vehicle (65 μM NaOH), C29 (25 μM or 50 μM), C29L (25 μM or 50 μM), or C29R (25 μM or 50 μM) and then stimulated with P3C (50 ng/mL), P2C (100 ng/mL), or LPS (100 ng/mL) for 1 hr in the presence of vehicle, C29, C29L, or C29R. TNF-α mRNA was measured as described in FIG. 1, panel D. Quantitative real-time results are representative of 2 independent experiments each carried out in duplicate (*, p≤0.05; **, p≤0.01; ***, p≤0.001; ****, p≤0.0001).
To preclude cytotoxicity from DMSO, C29 was dissolved in 65 μM NaOH in H2O. […] The two cleavage products, C29L and C29R, were tested to determine if either would reproduce the TLR2 inhibitory activity of C29.

mTLR2/6 = target: T1, mTLR2/6 (Mus musculus, UniProt Q9QUN7); assay: NF-κβ (ELAM)-luciferase reporter assay in HEK293T cells transfected with murine TLR2 and TLR6, P2C; assay type: cell-based; settings: HEK293T transfected with murine TLR2 and TLR6, C29 50 μM, P2C 50 ng/mL 5 hrs
T1 construct: expressed in transfected cells; host or cells: HEK293T, transient transfection; plasmids from Dr. Vladimir Toshchakov
T1 sequence (Q9QUN7 25-784): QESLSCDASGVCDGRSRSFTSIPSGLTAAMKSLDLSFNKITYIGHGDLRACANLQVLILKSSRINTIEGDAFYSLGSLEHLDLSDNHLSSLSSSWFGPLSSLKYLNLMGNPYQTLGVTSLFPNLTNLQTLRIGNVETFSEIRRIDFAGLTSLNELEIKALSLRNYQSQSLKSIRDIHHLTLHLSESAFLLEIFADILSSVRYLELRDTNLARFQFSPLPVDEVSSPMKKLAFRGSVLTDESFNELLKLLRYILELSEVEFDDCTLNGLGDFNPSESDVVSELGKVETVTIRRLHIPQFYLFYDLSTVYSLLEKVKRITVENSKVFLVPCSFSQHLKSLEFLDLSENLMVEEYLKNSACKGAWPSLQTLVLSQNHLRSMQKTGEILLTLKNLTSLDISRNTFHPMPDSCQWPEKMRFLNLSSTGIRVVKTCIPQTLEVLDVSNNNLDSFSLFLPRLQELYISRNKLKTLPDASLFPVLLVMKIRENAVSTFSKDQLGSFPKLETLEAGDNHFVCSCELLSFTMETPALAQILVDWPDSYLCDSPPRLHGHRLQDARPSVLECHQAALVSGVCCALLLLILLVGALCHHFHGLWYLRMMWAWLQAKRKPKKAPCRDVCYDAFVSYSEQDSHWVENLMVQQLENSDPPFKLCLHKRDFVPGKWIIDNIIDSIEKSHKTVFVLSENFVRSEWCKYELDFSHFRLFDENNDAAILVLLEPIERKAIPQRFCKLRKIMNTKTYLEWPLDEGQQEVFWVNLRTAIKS
Method: FIG. 9. C29 is species-specific and blocks human TLR2/6 signaling, but not murine TLR2/6 signaling. (A-D) HEK293T cells were transiently transfected with reporter constructs for ELAM-luciferase, Renilla-luciferase, and pcDNA3.1 in combination with/without pcDNA3-YFP-hTLR2, pFLAG-CMV1-hTLR1, pcDNA3-CFP-hTLR6, pcDNA3.1-mTLR2-CFP, pcDNA3.1-mTLR1-YFP, or pcDNA3.1-mTLR6-CFP. Cells were pretreated for 1 hr with media, vehicle (65 μM NaOH), or C29 (50 μM) and then treated with P3C or P2C (50 ng/mL) for 5 hrs in the presence of media, vehicle, or C29. Lysates were prepared and the dual-luciferase assay performed. Panels A and B represent the mean±SEM from 3 independent experiments and panels C and D represent the mean±SEM from 2 independent experiments each carried out in duplicate (*, p≤0.05; **, p≤0.01).
HEK293T cells were cultured and plated overnight in 12-well tissue culture plates (2×10^5 cells/well). Transfection mixtures consisted of pcDNA3-YFP-hTLR2 or pcDNA3.1 control vector (1 μg/well each), pELAM (NF-κB)-luciferase (0.2 μg/well), and pRL-TK-Renilla luciferase (0.05 μg/well). […] Cells were lysed in a passive lysis buffer (Promega, Madison, WI) and firefly luciferase and Renilla luciferase activities were measured using the dual luciferase reporter assay system (Promega, Madison, WI). […]

TLR2 = TLR2 (Homo sapiens, UniProt O60603); assay type: cell-based; settings: HEK-TLR2 cells, C29 50 μM
Sequence of TLR2 (O60603 21-784 limits assumed): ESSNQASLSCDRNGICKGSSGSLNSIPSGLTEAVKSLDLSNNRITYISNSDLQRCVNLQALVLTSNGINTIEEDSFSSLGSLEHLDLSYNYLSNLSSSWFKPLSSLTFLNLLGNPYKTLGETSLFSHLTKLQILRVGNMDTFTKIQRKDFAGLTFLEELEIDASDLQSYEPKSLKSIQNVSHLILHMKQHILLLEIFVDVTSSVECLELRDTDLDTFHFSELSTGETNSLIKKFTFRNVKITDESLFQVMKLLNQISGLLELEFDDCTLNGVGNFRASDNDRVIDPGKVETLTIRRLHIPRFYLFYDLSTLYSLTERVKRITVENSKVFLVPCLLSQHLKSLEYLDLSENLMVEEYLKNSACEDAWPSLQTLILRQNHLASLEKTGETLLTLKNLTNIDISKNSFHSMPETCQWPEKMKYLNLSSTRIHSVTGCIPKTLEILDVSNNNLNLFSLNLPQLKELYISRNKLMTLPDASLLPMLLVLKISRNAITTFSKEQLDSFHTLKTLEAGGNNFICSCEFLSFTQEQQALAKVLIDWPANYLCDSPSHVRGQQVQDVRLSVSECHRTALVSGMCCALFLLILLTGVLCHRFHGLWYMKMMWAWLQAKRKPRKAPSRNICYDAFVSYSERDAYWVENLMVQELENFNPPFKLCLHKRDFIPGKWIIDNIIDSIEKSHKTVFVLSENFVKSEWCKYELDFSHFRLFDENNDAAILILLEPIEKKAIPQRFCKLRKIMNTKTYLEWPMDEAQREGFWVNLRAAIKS

TLR2/6 = TLR2/6 (Homo sapiens, UniProt O60603); assay: P2C-induced IL-8 mRNA (qRT-PCR) in HEK-TLR2 stable transfectants; assay type: cell-based; parameters: expressed in transfected cells
Sequence of TLR2/6 (O60603 21-784): as the sequence (O60603 21-784 limits assumed) above

Sequence of TLR2/1 (Q9QUN7 25-784): as the sequence (Q9QUN7 25-784) above

SMILES | P3C-induced IL-12 p40 liver cytokine mRNA (TLR2/1; 1 or 3 hrs) | P3C-induced IL-12 p40 serum protein (TLR2/1; 1 or 3 hrs) | P3C-induced TNF-α liver cytokine mRNA (TLR2/1; 1 or 3 hrs) | P3C-induced TNF-α serum protein (TLR2/1; 1 or 3 hrs) | P3C-induced IL-12 p40 at the later time point (TLR2/1; 3 hrs) | solubility in water (Solubility in water) | stability of imine linkage (TLC) ([1]; dissolved in 65 μM NaOH in H2O) | stability of imine linkage (TLC) ([1]; dissolved in an organic solvent (ethyl acetate)) | mTLR2/6-induced NF-κβ-luciferase activity (mTLR2/6) | live F. tularensis-induced IL-8 mRNA (TLR2; LVS MOI=10, 4 hrs, TLR2/6 agonist) | heat-killed Ps. aeruginosa (HKPA)-induced IL-8 mRNA (TLR2; MOI=50, 4 hrs) | heat-killed S. aureus (HKSA)-induced IL-8 mRNA (TLR2; MOI=50, 4 hrs) | inhibition at 100 µM (TLR2/6; 100 μM compound, 1 hr pretreatment, P2C 5 ng/mL 1 hr, HEK-TLR2 cells, read-out: decrease of P2C-induced IL-8 mRNA) [%] | P2C-induced IL-8 mRNA (TLR2/6; C29 10 μM or 50 μM, P2C 200 ng/mL 1 hr, HEK-TLR2 stable transfectants)
COc1cccc(C=O)c1O [Compound C29L, ortho-vanillin] | significantly blocked | significantly blocked | significantly blocked | significantly blocked | significant inhibitory effect | more soluble in water than C29 | – | – | – | – | – | – | – | –
COc1cccc(/C=N/c2cccc(C(=O)O)c2C)c1O [Compound C29] | – | – | – | – | – | – | cleaved into these two species | not when dissolved in an organic solvent | but not mTLR2/6-induced | significantly inhibited | significantly inhibited | significantly inhibited | ≥ 50 | blocked P3C- and P2C-induced IL-8 mRNA dose-dependently
